Source: ChEMBL document CHEMBL3779783, “Short cationic lipopeptides as effective antibacterial agents: Design, physicochemical properties and biological evaluation” (Bioorg Med Chem, 2016)
≈ marks a conversion by molar mass, not a printed value. Starred links: 1 amine or outer side, 2 acyl side, 3 side chain; linkers in the order of their positions; H or OH if unused. Positions of bridges follow the written chain, without caps; N, C: chain ends. Non-standard residues stand in square brackets, D forms with d. Residues, ends and D or L forms follow the SMILES beside them. Groups on a side chain read outwards from the residue. ξ: configuration not given here. ξGly(decyl) = CCCCCCCCCCC(N)C(=O)O; Suc = O=C(CCC(=O)[*:2])[*:1]

Columns and labels:
Staphylococcus aureus [1] = test: Antimicrobial activity against vancomycin-resistant Staphylococcus aureus NARSA VRS4 after 20 hrs by microdilution assay; assay type: functional; settings: NARSA VRS4, 20 h
Staphylococcus aureus [2] = test: Antimicrobial activity against vancomycin-resistant Staphylococcus aureus NARSA VRS1 after 20 hrs by microdilution assay; assay type: functional; settings: NARSA VRS1, 20 h
Staphylococcus aureus [3] = test: Antimicrobial activity against clinical isolates of multi-resistant/methicillin-resistant Staphylococcus aureus after 20 hrs by microdilution assay; assay type: functional
Pseudomonas aeruginosa [4] = test: Antimicrobial activity against Pseudomonas aeruginosa ATCC 27853 after 20 hrs by microdilution assay; assay type: functional
Streptococcus pneumoniae [5] = test: Antimicrobial activity against multidrug resistant Streptococcus pneumoniae ATCC 700677 after 20 hrs by microdilution assay; assay type: functional; settings: ATCC 700677, 20 h
Enterococcus faecium [6] = test: Antimicrobial activity against multidrug resistant and high level vancomycin resistant Enterococcus faecium ATCC 51559 after 20 hrs by microdilution assay; assay type: functional; settings: ATCC 51559, 20 h
Klebsiella pneumoniae [7] = test: Antimicrobial activity against NDM-1 positive Klebsiella pneumoniae BAA-2146 after 20 hrs by microdilution assay; assay type: functional
Escherichia coli [8] = test: Antimicrobial activity against Escherichia coli ATCC 25922 after 20 hrs by microdilution assay; assay type: functional
Staphylococcus aureus [9] = test: Antimicrobial activity against clinical isolates of methicillin-resistant Staphylococcus aureus after 20 hrs by microdilution assay; assay type: functional
Acinetobacter baumannii [10] = test: Antimicrobial activity against Acinetobacter baumannii […] after 20 hrs by microdilution assay; assay type: functional
Staphylococcus aureus [11] = test: Antimicrobial activity against vancomycin-resistant Staphylococcus aureus NARSA VRS10 after 20 hrs by microdilution assay; assay type: functional; settings: NARSA VRS10, 20 h
Staphylococcus aureus [12] = test: Antimicrobial activity against glycopeptide-intermediate Staphylococcus aureus NRS1 after 20 hrs by microdilution assay; assay type: functional; settings: NRS1, 20 h
Staphylococcus aureus [13] = test: Antimicrobial activity against glycopeptide-intermediate Staphylococcus aureus NRS17 after 20 hrs by microdilution assay; assay type: functional; settings: NRS17, 20 h
Staphylococcus aureus [14] = test: Antimicrobial activity against methicillin-resistant Staphylococcus aureus ATCC 43300 after 20 hrs by microdilution assay; assay type: functional; settings: ATCC 43300, 20 h
[15] = Cytotoxicity against human HepG2 cells after 24 hrs by MTT assay; assay type: cell-based
Klebsiella pneumoniae [16] = test: Antimicrobial activity against Klebsiella pneumoniae ATCC 13883 after 20 hrs by microdilution assay; assay type: functional
[17] = Cytotoxicity against HEK293 cells after 24 hrs by MTT assay; assay type: cell-based; settings: human
Enterococcus faecalis [18] = test: Antimicrobial activity against clinical isolates of high level vancomycin-resistant Enterococcus faecalis after 20 hrs by microdilution assay; assay type: functional
Klebsiella pneumoniae [19] = test: Antimicrobial activity against multidrug resistant Klebsiella pneumoniae ATCC 700603 after 20 hrs by microdilution assay; assay type: functional
Staphylococcus aureus [20] = test: Antimicrobial activity against methicillin-susceptible Staphylococcus aureus ATCC 25923 after 20 hrs by microdilution assay; assay type: functional; settings: ATCC 25923, 20 h
Staphylococcus aureus [21] = test: Antimicrobial activity against vancomycin-resistant Staphylococcus aureus NARSA VRS4 after 24 hrs by M7-A7 method; assay type: functional; settings: NARSA VRS4, 24 h
Klebsiella pneumoniae [22] = test: Antimicrobial activity against Klebsiella pneumoniae ATCC 13883 after 24 hrs by M7-A7 method; assay type: functional; settings: ATCC 13883, 24 h
Staphylococcus aureus [23] = test: Antimicrobial activity against vancomycin-resistant Staphylococcus aureus NARSA VRS1 after 24 hrs by M7-A7 method; assay type: functional; settings: NARSA VRS1, 24 h
Staphylococcus aureus [24] = test: Antimicrobial activity against clinical isolates of multi-resistant/methicillin-resistant Staphylococcus aureus after 24 hrs by M7-A7 method; assay type: functional
Staphylococcus aureus [25] = test: Antimicrobial activity against clinical isolates of methicillin-resistant Staphylococcus aureus after 24 hrs by M7-A7 method; assay type: functional
Staphylococcus aureus [26] = test: Antimicrobial activity against glycopeptide-intermediate Staphylococcus aureus NRS1 after 24 hrs by M7-A7 method; assay type: functional; settings: NRS1, 24 h
Pseudomonas aeruginosa [27] = test: Antimicrobial activity against Pseudomonas aeruginosa ATCC 27853 after 24 hrs by M7-A7 method; assay type: functional; settings: ATCC 27853, 24 h
Enterococcus faecium [28] = test: Antimicrobial activity against multidrug resistant and high level vancomycin resistant Enterococcus faecium ATCC 51559 after 24 hrs by M7-A7 method; assay type: functional; settings: ATCC 51559, 24 h
Acinetobacter baumannii [29] = test: Antimicrobial activity against Acinetobacter baumannii […] after 24 hrs by M7-A7 method; assay type: functional
Klebsiella pneumoniae [30] = test: Antimicrobial activity against multidrug resistant Klebsiella pneumoniae ATCC 700603 after 24 hrs by M7-A7 method; assay type: functional; settings: Klebsiella pneumoniae, 700603, 24 h
Staphylococcus aureus [31] = test: Antimicrobial activity against vancomycin-resistant Staphylococcus aureus NARSA VRS10 after 24 hrs by M7-A7 method; assay type: functional; settings: NARSA VRS10, 24 h
Staphylococcus aureus [32] = test: Antimicrobial activity against methicillin-resistant Staphylococcus aureus ATCC 43300 after 24 hrs by M7-A7 method; assay type: functional; settings: ATCC 43300, 24 h
Staphylococcus aureus [33] = test: Antimicrobial activity against glycopeptide-intermediate Staphylococcus aureus NRS17 after 24 hrs by M7-A7 method; assay type: functional; settings: NRS17, 24 h
Klebsiella pneumoniae [34] = test: Antimicrobial activity against NDM-1 positive Klebsiella pneumoniae BAA-2146 after 24 hrs by M7-A7 method; assay type: functional; settings: ATCC BAA-2146, 24 h
Enterococcus faecalis [35] = test: Antimicrobial activity against clinical isolates of high level vancomycin-resistant Enterococcus faecalis after 24 hrs by M7-A7 method; assay type: functional
Streptococcus pneumoniae [36] = test: Antimicrobial activity against multidrug resistant Streptococcus pneumoniae ATCC 700677 after 24 hrs by M7-A7 method; assay type: functional; settings: ATCC 700677, 24 h
Escherichia coli [37] = test: Antimicrobial activity against Escherichia coli ATCC 25922 after 24 hrs by M7-A7 method; assay type: functional; settings: ATCC 25922, 24 h
Staphylococcus aureus [38] = test: Antimicrobial activity against methicillin-susceptible Staphylococcus aureus ATCC 25923 after 24 hrs by M7-A7 method; assay type: functional; settings: ATCC 25923, 24 h
[39] = Klebsiella pneumoniae, 700603, 20 h

Compound	MIC (Staphylococcus aureus [1])	MIC (Staphylococcus aureus [2])	MIC (Staphylococcus aureus [3])	MIC (Pseudomonas aeruginosa [4]; ATCC 27853, 20 h)	MIC (Streptococcus pneumoniae [5])	MIC (Enterococcus faecium [6])	MIC (Klebsiella pneumoniae [7]; ATCC BAA-2146, 20 h)	MIC (Escherichia coli [8]; ATCC 25922, 20 h)	MIC (Staphylococcus aureus [9])	MIC (Acinetobacter baumannii [10])	MIC (Staphylococcus aureus [11])	MIC (Staphylococcus aureus [12])	MIC (Staphylococcus aureus [13])	MIC (Staphylococcus aureus [14])	CC50 at 24 h [15]	MIC (Klebsiella pneumoniae [16]; ATCC 13883, 20 h)	CC50 at 24 h [17]	MIC (Enterococcus faecalis [18])	MIC (Klebsiella pneumoniae [19]; [39])	MIC (Staphylococcus aureus [20])	also measured
CCCCCCCCCCC(NC(=O)C(CCCCCCCCCC)NC(=O)C(CCCCNC(=O)C(CCCCN)NC(C)=O)NC(=O)C(CCCCN)NC(C)=O)C(N)=O (centres undefined) (Ac-KK([Lys-Ac])[ξGly(decyl)][ξGly(decyl)]-NH2; configuration not given here)	2.8 µM (≈ 2.46 µg/mL)	1.9 µM (≈ 1.67 µg/mL)	2.8 µM (≈ 2.46 µg/mL)	30 µM (≈ 26.4 µg/mL)	2.8 µM (≈ 2.46 µg/mL)	0.9 µM (≈ 0.792 µg/mL)	> 30 µM	> 30 µM	5.6 µM (≈ 4.93 µg/mL)	30 µM (≈ 26.4 µg/mL)	1.9 µM (≈ 1.67 µg/mL)	7.5 µM (≈ 6.6 µg/mL)	7.5 µM (≈ 6.6 µg/mL)	0.9 µM (≈ 0.792 µg/mL)	> 15 µM	> 30 µM	> 15 µM	0.9 µM (≈ 0.792 µg/mL)	> 30 µM	3.75 µM (≈ 3.3 µg/mL)	
CCCCCCCCCCC(NC(=O)C(CCCCCCCCCC)NC(=O)C(CCCCNC(=O)C(N)CCCCN)NC(=O)C(N)CCCCN)C(N)=O (centres undefined) (H-KK(Lys)[ξGly(decyl)][ξGly(decyl)]-NH2; configuration not given here)	0.2 µM (≈ 0.159 µg/mL)	0.1 µM (≈ 0.0796 µg/mL)	0.1 µM (≈ 0.0796 µg/mL)	30 µM (≈ 23.9 µg/mL)	0.2 µM (≈ 0.159 µg/mL)	0.2 µM (≈ 0.159 µg/mL)	> 30 µM	30 µM (≈ 23.9 µg/mL)	0.1 µM (≈ 0.0796 µg/mL)	> 30 µM	0.1 µM (≈ 0.0796 µg/mL)	0.1 µM (≈ 0.0796 µg/mL)	0.1 µM (≈ 0.0796 µg/mL)	0.1 µM (≈ 0.0796 µg/mL)	≥ 15 µM	> 30 µM	> 15 µM	0.2 µM (≈ 0.159 µg/mL)	> 30 µM	0.06 µM (≈ 0.0478 µg/mL)	
CCCCCCCCCCC1NC(=O)C(CCCCCCCCCC)NC(=O)C(CCCCN)NC(=O)C(CCCCN)NC(=O)CCC(=O)NCCCCC(C(=O)NCC(N)=O)NC1=O (centres undefined) (KK[ξGly(decyl)][ξGly(decyl)]KG-NH2; linker N-5 via Suc; configuration not given here)																					MIC (Staphylococcus aureus [21]): 0.5 µM (≈ 0.468 µg/mL); MIC (Klebsiella pneumoniae [22]): > 30 µM; MIC (Staphylococcus aureus [23]): 0.7 µM (≈ 0.655 µg/mL); MIC (Staphylococcus aureus [24]): 1.9 µM (≈ 1.78 µg/mL); MIC (Staphylococcus aureus [25]): 1.4 µM (≈ 1.31 µg/mL); MIC (Staphylococcus aureus [26]): 1.2 µM (≈ 1.12 µg/mL); MIC (Pseudomonas aeruginosa [27]): 30 µM (≈ 28.1 µg/mL); MIC (Enterococcus faecium [28]): 0.3 µM (≈ 0.281 µg/mL); MIC (Acinetobacter baumannii [29]): 15 µM (≈ 14 µg/mL); MIC (Klebsiella pneumoniae [30]): > 30 µM; MIC (Staphylococcus aureus [31]): 0.9 µM (≈ 0.842 µg/mL); MIC (Staphylococcus aureus [32]): 0.5 µM (≈ 0.468 µg/mL); MIC (Staphylococcus aureus [33]): 0.9 µM (≈ 0.842 µg/mL); MIC (Klebsiella pneumoniae [34]): > 30 µM; MIC (Enterococcus faecalis [35]): 0.2 µM (≈ 0.187 µg/mL); MIC (Streptococcus pneumoniae [36]): 0.9 µM (≈ 0.842 µg/mL); MIC (Escherichia coli [37]): ≥ 30 µM; MIC (Staphylococcus aureus [38]): 0.5 µM (≈ 0.468 µg/mL)
COLISTIN										0.04 µM											MIC (Pseudomonas aeruginosa [4]): 0.09 µM; MIC (Klebsiella pneumoniae [7]; ATCC BAA-2146): 0.04 µM; MIC (Escherichia coli [8]): 0.02 µM; MIC (Klebsiella pneumoniae [16]): 0.04 µM; MIC (Klebsiella pneumoniae [19]): 0.04 µM
